The values below come from patent US20260263338A1, “COMPOSITIONS COMPRISING AMAROUCIAXANTHIN A ESTERS AND USES THEREOF” (GAT THERAPEUTICS, S.L., priority 2022, published 2026).

Series [1] in a line: Solubility in different lipid vehicle formulations (HPLC assay of the filtered sample). The series is classed as physicochemical. The settings on record: about 25 mg compound in 1 mL. The method, then:
About 25 mg of compound was weighted into a glass vial and 1 mL of the lipophilic solvent was added to the vial containing the compound. The vial was vortexed for 1 minute followed by sonication for 30 minutes. The resulting solution was visually observed for any undissolved particles. The sonicated sample was filtered through a 0.22 μm PTFE filter and 500 μL of this filtered sample was dissolved with 25 mL of a EtOH: hexane (80:20) solution (“dilution 1”). 1 mL of “dilution 1” was dissolved with 10 mL of ACN to obtain “dilution 2”. 1 mL of “dilution 2” was filtered through a 0.22 μm PTFE filter and directly used for assay by HPLC. The concentration was calculated by extrapolation from a calibration curve. 1.00 mg of standard compound was accurately weighted (precision scale) and diluted to 100 ppm in a volumetric flask.

A short description of series [2]: Oral kinetic assay in mice: plasma concentration of ACX after oral delivery of FCX or ACX-Ac. The class given is in vivo, mice Hsd: ICR (CD-1). The settings on record: for AUCt, area under the concentration-time curve from 0 to the time of the last quantifiable observation, of ACX / Cmax: ACX measured in plasma after the named compound, oral (intragastric), single 10 mg/kg, sunflower oil; for AUCt, area under the concentration-time curve from 0 to the time of the last quantifiable observation, of ACX: linear-log trapezoidal rule; for Cmax: noncompartmental analysis, read-out: Cmax, maximum observed plasma concentration of ACX. As for the experimental part: Immunocompetent mice from the strain Hsd: ICR (CD-1) (females, 6-7 weeks old from ENVIGO), were housed under sterile conditions at a constant temperature of 20-22° C. and relative humidity (45-65%) under daily cycles of light/darkness (12 hours). Sterilized water and food were available ad libitum.
ACX-Ac was dissolved at 1 mg/mL in sunflower oil and sterilized by filtration. FCX was dissolved at 2 mg/mL in sunflower oil and sterilized by filtration. Animals were weighted before the assay to determine the appropriate dispensing volume at 5 mL/kg (FCX) or 10 ml/kg (ACX-Ac). Formulations were administered once, intragastrically, at 10 mg/kg. Blood was collected at different time points, as stated in Table 1. It was extracted either through the facial vein or by intracardiac puncture (end points), on recipients containing 5 μL of 0.5 M EDTA.
Blood samples were analyzed by HPLC-MS/MS following proprietary analytical methods and the concentration of ACX in each sample was determined. A non-compartmental pharmacokinetic analysis was carried out using individual plasma concentrations versus sampling times by means of the PKPlus® software version 2.0 (Simulations Plus, Lancaster, CA 93534, USA).

Where [3] appears, read: DHA (fish oil), PUFA-enriched oil.

Converted amounts (≈) assume the structure as drawn.

Usually solubility stands for how much of the substance goes into solution per volume. Read a high solubility as much dissolved substance. Regarding `CC1=CC(=O)CC(C)(C)[C@@]1(O)CC(=O)/C(C)=C/C=C/C(C)=C/C=C/C=C(C)/C=C/C=C(\C)C=C=C1C(C)(C)C[C@H](O)C[C@@]1(C)O` [ACX, Amarouciaxanthin A], the solubility in series [1] (setting [3]) is listed as 7.2 mg/mL (≈ 11.7 mM); in series [1] (Labrafac Lipophile 1349), 19.0 mg/mL (≈ 30.9 mM); in series [1] (Labrafac MC60) it was 15.9 mg/mL (≈ 25.9 mM); in series [1] (Labrafil M 1944CS) it was 19.9 mg/mL (≈ 32.4 mM); in series [1] (Labrafil M 2125), 20.3 mg/mL (≈ 33 mM); in series [1] (Labrasol ALF), 22.4 mg/mL (≈ 36.4 mM). In addition, the results for the solubility in series [1] (Maisine), in series [1] (Plurol Oleique) and in series [1] (Sunflower oil) were 19.9 mg/mL (≈ 32.4 mM), 16.7 mg/mL (≈ 27.2 mM) and 9.2 mg/mL (≈ 15 mM), respectively.
Take `CC(=O)O[C@H]1CC(C)(C)C(=C=C/C(C)=C/C=C/C(C)=C/C=C/C=C(C)/C=C/C=C(\C)C(=O)C[C@@]2(O)C(C)=CC(=O)CC2(C)C)[C@](C)(O)C1` [ACX-Ac, Amarouciaxanthin A acetate]: the “AUCt, area under the concentration-time curve from 0 to the time of the last quantifiable observation, of ACX” value in series [2] amounted to 80.59 µM·h. The Cmax in series [2] amounted to 9.35 µM. Further, the “administered compound detected in plasma samples” value in series [2] (oral, 10 mg/kg in sunflower oil) is given as “not detected”. Further, in series [2] (oral, 10 mg/kg in sunflower oil, FIG. 1 and Table 3), the “plasma levels of ACX in comparison to those obtained after FX administration” value is “substantially higher”. Moreover, the solubility in series [1] (setting [3]) is recorded as 18.3 mg/mL; in series [1] (Labrafac Lipophile 1349), 21.7 mg/mL; in series [1] (Labrafac MC60) it was 21.0 mg/mL; in series [1] (Labrafil M 1944CS) it was 22.6 mg/mL; in series [1] (Labrafil M 2125) it was 23.0 mg/mL; in series [1] (Labrasol ALF), 22.4 mg/mL. Also, the solubility was 22.9 mg/mL in series [1] (Maisine), 11.9 mg/mL in series [1] (Plurol Oleique) and 19.9 mg/mL in series [1] (Sunflower oil).
`CC(=O)O[C@H]1CC(C)(C)C(=C=C/C(C)=C/C=C/C(C)=C/C=C/C=C(C)/C=C/C=C(\C)C(=O)C[C@@]23O[C@]2(C)C[C@@H](O)CC3(C)C)[C@](C)(O)C1` [FCX, fucoxanthin]: the “AUCt, area under the concentration-time curve from 0 to the time of the last quantifiable observation, of ACX” value in series [2] came out at 51.19 µM·h. Further, the Cmax in series [2] is 2.87 µM. For the same compound, in series [2] (oral, oil formulation, 10 mg/kg), the “oral absorption of the administered compound” value is given as “negligible”. Also, the solubility is recorded as 4.1 mg/mL (≈ 6.22 mM) in series [1] (setting [3]); 16.9 mg/mL (≈ 25.6 mM) in series [1] (Labrafac Lipophile 1349); 20.4 mg/mL (≈ 31 mM) in series [1] (Labrafac MC60); 17.6 mg/mL (≈ 26.7 mM) in series [1] (Labrafil M 1944CS); 23.0 mg/mL (≈ 34.9 mM) in series [1] (Labrafil M 2125); 22.3 mg/mL (≈ 33.8 mM) in series [1] (Labrasol ALF). In addition, the solubility in series [1] (Maisine) stood at 23.0 mg/mL (≈ 34.9 mM); in series [1] (Plurol Oleique) it was 20.7 mg/mL (≈ 31.4 mM); in series [1] (Sunflower oil), 5.0 mg/mL (≈ 7.59 mM).
